Data taken from paper PMC4917206, “Chemical Modification of Influenza CD8+ T-Cell Epitopes Enhances Their Immunogenicity Regardless of Immunodominance” (PLoS ONE, 2016).

system: splenocytes of WT-vaccinated HLA-A2 tg mice; type: cell-based, mouse; set-up: key to response compared with WT peptide control, mouse splenocytes: *: Lower response than WT peptide; details: not given

| Substance | Mouse splenocytes (ex vivo assay), Average | rank by T cell activation, mouse splenocytes | response compared with WT peptide control, mouse splenocytes |
| --- | --- | --- | --- |
| F[2-AOC]YSDFHFI [F143] | 92 | Upper 3 | F143 ^* |

target: T1, HLA-A*0301 (Homo sapiens, UniProt P04439); type: binding; details: not given
T1 construct: Soluble MHC was dissolved in PBS containing 0.5 mg/ml bovine γ-globulin; made in house

| Substance | FP binding score, percentage inhibition of tracer peptide binding, 4h [%] | FP binding score, percentage inhibition of tracer peptide binding, 24h [%] |
| --- | --- | --- |
| ILRGSVAHK [I WT, reference compound] | 66 | 87 |
| ILRGSV[2-AOC]HK [I65] | 87 | 94 |
| ILRGSV[NLE]HK [I63] | 74 | 89 |
| IL[4-FPHE]GSVAHK [I94] | 70 | 89 |
| I[AHA]RGSV[2-FUR]HK [I79] | 77 | 90 |
| I[AHA]RGSV[CSET]HK [I73] | 74 | 90 |
| I[AHA]RGSV[CpALA]HK [I77] | 71 | 89 |
| I[AHA]RGSV[NLE]HK [I74] | 77 | 92 |
| I[AHA][2-AOC]GSVAHK [I59] | 71 | 91 |
| I[AHA][4-FPHE]GSVAHK [I87] | 73 | 91 |
| I[AHA][CHA]GSVAHK [I89] | 75 | 91 |
| I[AHA][CSME]GSVAHK [I86] | 71 | 89 |
| I[AHA][CpALA]GSVAHK [I83] | 70 | 89 |
| I[AHA][NLE]GSVAHK [I58] | 68 | 89 |
| I[AHA][PRG]GSVAHK [I84] | 71 | 89 |
| I[AHA][SOME]GSVAHK [I85] | 69 | 88 |
| I[OrnN2]RGSVAHK [I49] | 71 | 90 |
| RMVLSAFDEK [R4] | 61 | 69 |
| RMVLSAFDER [R WT, reference compound] | 18 | 6 |
| RMVLSAF[2-AOC]ER [R38] | 69 | 75 |
| RMVLSAF[4-FPHE]ER [R40] | 63 | 57 |

| Substance | FP binding score, percentage inhibition of tracer peptide binding, 4h [%] | FP binding score, percentage inhibition of tracer peptide binding, 24h [%] |
| --- | --- | --- |
| RMVLSAF[AHA]ER [R81] | 71 | 76 |
| RMVLSAF[CSET]ER [R37] | 60 | 60 |
| RMVLSAF[CpALA]ER [R42] | 65 | 73 |
| RMVLSAF[NLE]ER [R36] | 66 | 73 |
| RMVLSAF[ORN]ER [R41] | 65 | 63 |
| RMVLSAF[PRG]ER [R39] | 62 | 62 |
| RM[2-AOC]LSAFDER [R50] | 70 | 66 |
| RM[4-FPHE]LSAFDER [R55] | 70 | 65 |
| RM[OrnN2]LSAFDER [R83] | 71 | 72 |
| R[AHA]VLSAFDEK [R2] | 58 | 67 |
| R[AHA]VLSAF[2-AOC]ER [R67] | 74 | 78 |
| R[AHA]VLSAF[4-FPHE]ER [R68] | 67 | 64 |
| R[AHA]VLSAF[SOME]ER [R66] | 63 | 63 |
| R[NVA]VLSAFDKR [R59] | 62 | 68 |
| R[NVA]VLSAF[2-AOC]ER [R71] | 71 | 82 |
| R[NVA]VLSAF[4-FPHE]ER [R72] | 68 | 72 |
| R[NVA]VLSAF[SOME]ER [R70] | 64 | 74 |
| SFSFGGFTK [S WT, reference compound] | 67 | 58 |
| SF[4-FPHE]FGGFTK [S84] | 82 | 95 |
| S[AHA]RFGGFTK [S54] | 80 | 92 |
| S[NVA]RFGGFTK [S53] | 80 | 93 |

| Substance | FP binding score, percentage inhibition of tracer peptide binding, 4h [%] | FP binding score, percentage inhibition of tracer peptide binding, 24h [%] |
| --- | --- | --- |
| S[NVA]SFGGFHK [S56] | 78 | 91 |
| S[NVA]SFGGF[AHA]K [S90] | 78 | 90 |
| S[NVA]SFGGF[TOME]K [S92] | 80 | 92 |
| S[NVA]SFGG[2-AOC]TK [S70] | 90 | 96 |
| S[NVA]SFGG[2-FUR]TK [S76] | 75 | 91 |
| S[NVA]SFGG[4-FPHE]TK [S72] | 79 | 93 |
| S[NVA]SFGG[BPG]TK [S73] | 73 | 91 |
| S[NVA]SFGG[CpALA]TK [S74] | 78 | 94 |
| S[NVA]SFGG[NLE]TK [S68] | 79 | 93 |
| S[NVA]SFGG[NVA]TK [S69] | 72 | 91 |
| S[NVA]SFGG[PRG]TK [S71] | 70 | 90 |
| S[NVA][2-AOC]FGGFTK [S50] | 83 | 94 |
| S[NVA][4-FPHE]FGGFTK [S95] | 80 | 93 |
| S[NVA][AHA]FGGFTK [S52] | 80 | 93 |
| S[NVA][CSME]FGGFTK [S93] | 80 | 93 |
| S[NVA][CpALA]FGGFTK [S96] | 76 | 91 |
| S[NVA][NLE]FGGFTK [S94] | 80 | 93 |
| [2-AOC][AHA]RGSVAHK [I17] | 61 | 89 |
| [2-AOC][NLE]RGSVAHK [I60] | 72 | 91 |
| [AHA][NLE]RGSVAHK [I53] | 73 | 91 |
| [CSME][AHA]RGSVAHK [I61] | 71 | 90 |

same assay, conditions: after 4h

| Substance | FP binding score HLA-A*0301, percentage inhibition, 4h [%] |
| --- | --- |
| RMVLSAF[CSET]ER [R37] | 60 |
| RMVLSAF[PRG]ER [R39] | 62 |
| R[AHA]VLSAF[SOME]ER [R66] | 63 |

same assay, conditions: after 24h

| Substance | FP binding score HLA-A*0301, percentage inhibition, 24h [%] |
| --- | --- |
| RMVLSAF[CSET]ER [R37] | 60 |
| RMVLSAF[PRG]ER [R39] | 62 |
| R[AHA]VLSAF[SOME]ER [R66] | 63 |

target: T2, HLA-A*0201 (Homo sapiens, UniProt P04439, D140Y/D185E/D98H/E176V/E277Q/G131W/G231S/I119V/I121R/I166T/I218V/L300P/L318F/N151K/N90K/P208A/P217A/Q86G/Q94H/R138H/R169H/T345S); type: binding; details: not given
T2 construct: Soluble MHC was dissolved in PBS containing 0.5 mg/ml bovine γ-globulin; made in house

| Substance | FP binding score, percentage inhibition of tracer peptide binding, 4h [%] | FP binding score, percentage inhibition of tracer peptide binding, 24h [%] |
| --- | --- | --- |
| F[2-AOC]YSDFHFI [F143] | 93 | 91 |
